From US9271978B2 (Zenith Epigenetics Corp., priority 2012, dated 2016)

Key:
Set-up in all cases: key: Active: Compounds with an IC50 value less than 30 μM were deemed to be active.; Not Active: Compounds with an IC50 value less than 30 μM were deemed to be active
[1] = molecular target: T1, second bromodomain of Brd2 (BRD2(2)) (Homo sapiens, UniProt P25440); test: Inhibition of tetra-acetylated histone H4 binding to Brd2 bromodomain 2 (TR-FRET); details: tetra-acetylated histone H4 peptide, active = IC50 <30 μM
T1 construct: made in house; host or cells: E. coli BL21 (DE3)
Method in brief: (§1)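 IC50 values come from dose-response curves of the 665 nm to 620 nm TR-FRET signal decrease, measured after 2 h at room temperature. Reactions contained 200 nM E. coli-expressed His-tagged bromodomain, 25-50 nM biotinylated tetra-acetylated H4 peptide, Eu-streptavidin plus XL665 anti-His antibody, with 30 mM HEPES pH 7.4, 320 mM KF and 0.2% DMSO.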

[2] = test system: hIL-6 mRNA; test: Inhibition of hIL-6 mRNA transcription in U937 cells; format: cell-based, human; details: LPS stimulation, active = IC50 <30 μM
Method in brief: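 Readout is one-step real-time PCR of hIL-6 mRNA, normalized to an internal control and given as fold induction versus control. Cells: PMA (60 ng/mL, 3 days)-differentiated U937 macrophages, compound added 1 h before 1 ug/mL LPS, harvested after 3 h at 37° C.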

[3] = test system: human AML MV-4-11 (CRL-9591) cells; test: Inhibition of cell proliferation in MV4-11 cells; format: cell-based; details: human AML MV-4-11 cells, 72 h; active = IC50 <30 μM
Method in brief: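 IC50 values come from blank-corrected proliferation relative to DMSO controls, read as 490 nm absorbance 3–4 h after CellTiter Aqueous One addition. Before that, cells seeded at 5×10^4/well were exposed for 72 h (37° C, 5% CO2) to triplicate two-fold compound dilutions spanning 30–0.2 μM.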

[4] = test system: c-myc; test: Inhibition of c-myc expression in MV4-11 cells (mRNA, real-time PCR); format: cell-based; details: Human AML MV4-11 cells, 3 h incubation
Method in brief: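 Duplex RT-qPCR of c-myc against cyclophilin cDNA gave IC50 from a dose–response curve. Input was isolated mRNA from 2.5×10^4 MV4-11 cells after 3 h exposure at 37 °C to compound or 0.1% DMSO vehicle.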

[5] = molecular target: T2, Brd4 bromodomain 1 (BRD4(1)) (Homo sapiens, UniProt O60885); test: Inhibition of tetra-acetylated histone H4 binding to Brd4 bromodomain 1 (TR-FRET); details: tetra-acetylated histone H4 peptide, active = IC50 <30 μM
T2 construct: Illustrative results with the first bromodomain of Brd4; made in house; host or cells: E. coli BL21 (DE3)
Method in brief: as §1

T1 sequence (P25440 344-453 limits assumed): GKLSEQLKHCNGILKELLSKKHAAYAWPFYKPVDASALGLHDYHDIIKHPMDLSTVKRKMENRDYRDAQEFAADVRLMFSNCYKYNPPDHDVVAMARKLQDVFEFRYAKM

| FRET activity (IC50 <30 μM) BRD2(2) [1] | IL-6 activity (IC50 <30 μM) [2] | Cell Proliferation activity (IC50 <30 μM) [3] | c-myc activity (IC50 <30 μM) [4] | FRET activity (IC50 <30 μM) BRD4(1) [5] | Structure (SMILES) |
| --- | --- | --- | --- | --- | --- |
| Active | Active | Active | Active | Active | Cc1noc(C)c1-c1ccc(=O)n(Cc2c(F)cccc2Cl)n1 [Example 96, 2-(2-Chloro-6-fluorobenzyl)-6-(3,5-dimethylisoxazol-4-yl)pyridazin-3(2H)-one] |
| Active | Active | Active | Not Active | Active | Cc1noc(N)c1-c1ccc(=O)n(Cc2ccccc2)c1 [Example 98, 5-(5-Amino-3-methylisoxazol-4-yl)-1-benzylpyridin-2(1H)-one trifluoroacetic acid] |
| Active | Active | Active | Active | Active | Cc1noc(C)c1-c1ccc(=O)n(C(C)c2ccc(F)cc2)c1 (stereo not shown) [Example 101, 5-(3,5-Dimethylisoxazol-4-yl)-1-(1-(4-fluorophenyl)ethyl)pyridin-2(1H)-one] |
| Active | Active | Active | Not Active | Active | Cc1noc(C)c1-c1ccc(=O)n(Cc2ccsc2)n1 [Example 107, 6-(3,5-Dimethylisoxazol-4-yl)-2-(thiophen-3-ylmethyl)pyridazin-3(2H)-one] |
| Active | Active | Active | Active | Active | Cc1noc(C)c1-c1ccc(=O)n(C(C)c2cccc(Cl)c2)c1 (stereo not shown) [Example 113, 1-(1-(3-Chlorophenyl)ethyl)-5-(3,5-dimethylisoxazol-4-yl)pyridin-2(1H)-one] |
| Active | Not Active | Active | Not Active | Active | COc1cc(-c2ccc(=O)n(Cc3ccc(C(C)(C)C)cc3)n2)cc(OC)c1OC [Example 120, 2-(4-(tert-Butyl)benzyl)-6-(3,4,5-trimethoxyphenyl)pyridazin-3(2H)-one] |
| Active | Active | Active | Active | Active | Cc1cccc(Cn2cc(-c3c(C)noc3C)ccc2=O)c1 [Example 122, 5-(3,5-Dimethylisoxazol-4-yl)-1-(3-methylbenzyl)pyridin-2(1H)-one] |
| Active | Active | Active | Active | Active | Cc1noc(C)c1-c1ccc(=O)n(Cc2ccccc2C(F)(F)F)c1 [Example 123, 5-(3,5-Dimethylisoxazol-4-yl)-1-(2-(trifluoromethyl)benzyl)pyridin-2(1H)-one] |
| Active | Active | Active | Active | Active | Cc1noc(C)c1-c1ccc(=O)n(C(C)c2ccccc2F)c1 (stereo not shown) [Example 124, 5-(3,5-Dimethylisoxazol-4-yl)-1-(1-(2-fluorophenyl)ethyl)pyridin-2(1H)-one] |
| Active | Active | Active | Active | Active | Cc1noc(C)c1-c1ccc(=O)n(Cc2cccc(Cl)c2)c1 [Example 126, 1-(3-Chlorobenzyl)-5-(3,5-dimethylisoxazol-4-yl)pyridin-2(1H)-one] |
| Active | Active | Active | Active | Active | Cc1noc(C)c1-c1ccc(=O)n(Cc2ccccc2Cl)c1 [Example 127, 1-(2-Chlorobenzyl)-5-(3,5-dimethylisoxazol-4-yl)pyridin-2(1H)-one] |
| Active | Not Active | Not Active | Active | Active | Cc1noc(C)c1-c1ccc(=O)n([C@@H](C)c2ccccc2)c1 [Example 133, (S)-5-(3,5-Dimethylisoxazol-4-yl)-1-(1-phenylethyl)pyridin-2(1H)-one] |
| Active | Active | Active | Active | Active | Cc1noc(C)c1-c1ccc(=O)n(Cc2ccc(Cl)cc2Cl)c1 [Example 136, 1-(2,4-Dichlorobenzyl)-5-(3,5-dimethylisoxazol-4-yl)pyridin-2(1H)-one] |
| Active | Active | Active | Active | Active | Cc1noc(C)c1-c1ccc(=O)n(Cc2ccc(C#N)cc2)c1 [Example 137, 4-((5-(3,5-Dimethylisoxazol-4-yl)-2-oxopyridin-1(2H)-yl)methyl)benzonitrile] |
| Active | Active | Active | Active | Active | Cc1noc(C)c1-c1ccc(=O)n(Cc2cc(F)c(F)c(F)c2)c1 [Example 142, 5-(3,5-Dimethylisoxazol-4-yl)-1-(3,4,5-trifluorobenzyl)pyridin-2(1H)-one] |
| Active | Active | Active | Not Active | Active | Cc1onc(N)c1-c1ccc(=O)n(Cc2ccccc2)c1 [Example 151, 5-(3-Amino-5-methylisoxazol-4-yl)-1-benzylpyridin-2(1H)-one] |
| Active | Not Active | Active | Not Active | Active | COc1ccc(-c2nn(Cc3ccccc3)c(=O)c3ccccc23)c(O)c1OC [Example 164, 2-Benzyl-4-(2-hydroxy-3,4-dimethoxyphenyl)phthalazin-1(2H)-one] |
